Tested on: HEK293
Assay: cells
Conditions: Homo sapiens

| SMILES | EC50 |
| --- | --- |
| N#Cc1ccccc1-c1ccc(COCc2ccc(-n3cc(C(=O)O)cn3)nc2)cc1 | > 100 µM |
| O=C(O)c1cnn(-c2ccc(COCc3cccc(C(F)(F)F)c3)cn2)c1 | 11 µM |
| COc1ccc(COCc2ccc(-n3cc(C(=O)O)cn3)nc2)cc1 | 1 µM |
| O=C(O)c1cnn(-c2ccc(COCc3ccc(Cl)cc3)cn2)c1 | 7.4 µM |
| O=C(O)c1cnn(-c2ccc(COCc3ccccc3)cn2)c1 | 25 µM |
| O=C(O)c1cnn(-c2ccc(COCc3cccc(Cl)c3)cn2)c1 | 3.8 µM |
| COc1cccc(COCc2ccc(-n3cc(C(=O)O)cn3)nc2)c1 | > 100 µM |
